These results are taken from paper PMC9586306 (Proceedings of the National Academy of Sciences of the …, 2022).

The target in assay [1] is IBV NA (B/Singapore/222/1979) (Influenza B virus, UniProt P16203). It counts as biochemical, Influenza B virus B/Singapore/222/1979. The settings on record: read-out: IC50 ± SEM.
Assay [2] concerns the target A/California/04/2009 (H1N1) neuraminidase (09N1) (Influenza A virus (A/California/04/2009(H1N1)), UniProt C3W5S3). It counts as biochemical. The settings on record: read-out: IC50 ± SEM.

Chain of IBV NA (B/Singapore/222/1979) (P16203 77-466 limits assumed): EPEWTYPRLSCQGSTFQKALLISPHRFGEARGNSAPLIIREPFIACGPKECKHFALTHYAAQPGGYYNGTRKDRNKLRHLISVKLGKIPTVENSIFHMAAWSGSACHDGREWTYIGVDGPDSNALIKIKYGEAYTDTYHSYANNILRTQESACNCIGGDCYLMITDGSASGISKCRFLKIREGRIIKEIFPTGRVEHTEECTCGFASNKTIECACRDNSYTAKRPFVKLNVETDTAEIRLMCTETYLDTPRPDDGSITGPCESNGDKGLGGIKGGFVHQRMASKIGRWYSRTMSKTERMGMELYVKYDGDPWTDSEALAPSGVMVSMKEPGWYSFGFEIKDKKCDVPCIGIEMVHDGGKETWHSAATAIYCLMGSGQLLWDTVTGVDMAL

As for `CCC(CC)[C@H](NC(C)=O)[C@@H]1[C@H](O)[C@@H](C(=O)O)C[C@H]1N=C(N)N` [Peramivir, peramivir], the IC50 in assay [1] is 16.9 ± 1.94 nM; in assay [2], 0.45 ± 0.08 nM.
